Consider one molecule from patent publication US20050255537A1, “Method for monitoring treatment with a parathyroid hormone” (priority 1999, published 2005).

In assay [1] the test system is BSAP and PICP serum levels, NTX urine levels. The assay is described as follows: Example 1 clinical trial of rhPTH(1-34) in postmenopausal women: markers of bone formation and resorption. In kind it is in vivo, human. The procedure: • Number of Subjects: • rhPTH(1-34): 1093 enrolled, 848 finished. • Placebo: 544 enrolled, 447 finished. • Diagnosis and Inclusion Criteria: Women ages 30 to 85 years, postmenopausal for a minimum of 5 years, with a minimum of one moderate or two mild atraumatic vertebral fractures. • Dosage and Administration: • Test Product (blinded) • rhPTH(1-34): 20 μg/day, given subcutaneously • rhPTH(1-34): 40 μg/day, given subcutaneously • Reference Therapy (blinded) • Placebo study material for injection • Duration of Treatment: • rhPTH(1-34): 17-23 months (excluding 6-month run-in phase) • Placebo: 17-23 months (excluding 6-month run-in phase) • Criteria for Evaluation: Spine x-ray; serum biological markers (calcium, bone-specific alkaline phosphatase, procollagen I carboxy-terminal propeptide); urine markers (calcium, N-telopeptide, free deoxypyridinoline); 1,25-dihydroxyvitamin D; bone mineral density: spine, hip, wrist, and total body: height; population pharmacokinetics; bone biopsy (selected study sites).
Measures of BSAP, PICP, and NTX levels were determined for each patient through the course of therapy, for example, at 0, 1, 3, 6, 12, 21 and 24 months after the initiation of administration of parathyroid hormone. Parathyroid hormone treatment was discontinued after 17-23 months. The percent change (relative to the initial “0” month levels) for each marker was determined for each patient and is reported in the Figures. The overall changes observed in the 20 μg/day PTH-treated patient population, the 40 μg/day PTH-treated treated patient population, and the placebo patient population were determined by methods known to those of skill in the arts.

Assay [2] shares this test system. The assay is described as follows: Example 3 clinical trial of rhPTH(1-34) vs alendronate: bone markers. In kind it is in vivo, human. The settings on record: 40 μg/day PTH. The procedure:
• Number of Subjects: • rhPTH(1-34): 73 enrolled, 51 finished. • Alendronate (Fosamax®): 73 enrolled, 57 finished. • Diagnosis and Inclusion Criteria: Women aged 65±8 years, postmenopausal for 19±19 years, selected for a baseline spine bone mineral density of 0.8±0.1 and a T value of −2.2. Dosage and Administration: • Test Product (blinded) • rhPTH(1-34): 40 μg/day, given subcutaneously • Reference (Control) Therapy (blinded) • Alendronate (Fosamax®): 10 mg per patient per day • Duration of Treatment: • rhPTH(1-34): 12-18 months, with follow up from time of withdrawal of drug to 18 months of study. • Alendronate: 12-18 months, with follow up from time of withdrawal of drug to 18 months of study. • Criteria for Evaluation: Spine x-ray, serum biological markers (calcium, bone-specific alkaline phosphatase, procollagen I carboxy-terminal propeptide); urine makers (calcium, N-telopeptide, fir deoxypyridinoline); 1,25-dihydroxyvitamin D; bone mineral density spine, hip, wrist, and total body.
Measures of BSAP, PICP, and NTX levels were determined for each patient through the course of therapy generally according to methods described above in Example 1.

Assay [3] concerns serum PICP, serum BSAP, urinary NTX, urinary free deoxypyridinoline. The assay is described as follows: Example 5 study GHAJ: biochemical markers of bone formation and resorption in men. It counts as in vivo, human. The settings on record: for serum PICP peak concentration above baseline: Month 1. The protocol: Four hundred thirty seven men with primary osteoporosis were enrolled in the study. Approximately one-third of die patients were randomly assigned to LY333334 40 μg/day plus calcium and vitamin D, one-third of the patients were randomly assigned to LY333334 20 μg/day plus calcium and vitamin D, and one-third of the patients were randomly assigned to placebo plus calcium and vitamin D. • Number of Subjects: • PTH: Male 437, Female 0, Total 437; • LY333334 20 μg: Male: Total 151. • LY333334 40 μg: Male: Total 139. • Placebo: Male: Total 147. • Diagnosis and Inclusion Criteria: The study patients were men with primary osteoporosis, aged 30 to 85 years, inclusive. L-2 to L-4 vertebrae must have been intact without artifacts, crush fracture or other abnormalities which would have interfered with the analysis of the posterior-anterior lumbar spine bone mineral density (BMD) measurement which must have been at least 2.0 SD below that of young, healthy men. […] Patient Demographic and Other Baseline Characteristics

For assay [4], the system named is postmenopausal osteoporotic women. The following applies: GHAC efficacy trial, disclosed in PCT/US99/18961; cited from earlier work.
The mark [5] stands for this setting: about 5-6 weeks following termination, about 21-24 months after initiation.
Setting [6] is: about 5-6 weeks following termination (18 months).

SMILES strings stand for the structures.

Regarding `CC[C@H](C)[C@H](NC(=O)[C@H](CCC(=O)O)NC(=O)[C@H](CO)NC(=O)[C@@H](NC(=O)[C@@H](N)CO)C(C)C)C(=O)N[C@@H](CCC(N)=O)C(=O)N[C@@H](CC(C)C)C(=O)N[C@@H](CCSC)C(=O)N[C@@H](Cc1cnc[nH]1)C(=O)N[C@@H](CC(N)=O)C(=O)N[C@@H](CC(C)C)C(=O)NCC(=O)N[C@@H](CCCCN)C(=O)N[C@@H](Cc1cnc[nH]1)C(=O)N[C@@H](CC(C)C)C(=O)N[C@@H](CC(N)=O)C(=O)N[C@@H](CO)C(=O)N[C@@H](CCSC)C(=O)N[C@@H](CCC(=O)O)C(=O)N[C@@H](CCCN=C(N)N)C(=O)N[C@H](C(=O)N[C@@H](CCC(=O)O)C(=O)N[C@@H](Cc1c[nH]c2ccccc12)C(=O)N[C@@H](CC(C)C)C(=O)N[C@@H](CCCN=C(N)N)C(=O)N[C@@H](CCCCN)C(=O)N[C@@H](CCCCN)C(=O)N[C@@H](CC(C)C)C(=O)N[C@@H](CCC(N)=O)C(=O)N[C@@H](CC(=O)O)C(=O)N[C@H](C(=O)N[C@@H](Cc1cnc[nH]1)C(=O)N[C@@H](CC(N)=O)C(=O)N[C@@H](Cc1ccccc1)C(=O)O)C(C)C)C(C)C` [LY333334], the “percent change in PICP serum levels during treatment” value in assay [1] (20 μg/day and 40 μg/day PTH, FIG. 2) was “reached a peak within about one or two months”; in assay [2] (FIG. 8) it was “reached a peak within about one or two months”. Moreover, the “percent change in NTX urine levels during treatment” value is listed as “increased steadily until about 12 months after treatment initiation” in assay [1] (20 μg/day and 40 μg/day PTH, FIG. 3); “increased steadily until about 12 months after treatment initiation” in assay [2] (FIG. 9). Also, the “BSAP level after termination of PTH treatment” value in assay [1] (setting [5]) is on record as “returned to a level at or slightly higher than placebo control levels”; in assay [2] ((18 months)), “BSAP remained at an elevated level”. Moreover, in assay [1] (setting [5]), the “PICP level after termination of PTH treatment” value is “returned to a level about the same as placebo controls”. The “percent change in NTX levels after termination of PTH treatment” value in assay [1] (about 21-24 months after initiation) is “declined and returned to levels similar to those observed in the placebo treated group”. Besides, the “NTX levels after termination of PTH treatment” value in assay [2] (setting [6]) is “had declined but remained elevated compared to pretreatment levels”. The “PICP levels after termination of PTH treatment” value in assay [2] (setting [6]) was “PICP levels were the same pre-treatment levels”. Further, the “urinary N-telopeptide and urinary free deoxypyridinoline” value in assay [3] (20-μg and 40-μg doses) is “Slightly delayed but significant increases”. Moreover, the figures for the “serum PICP peak concentration above baseline” value in assay [3] (20-μg group) and in assay [3] (40-μg group) were 33.7% and 78.0%, respectively. Further, the “increase in serum BSAP concentration from baseline” value in assay [3] (20-μg group, Month 12) came out at 28.8%; in assay [3] (40-μg group, Month 12), 59.3%. Besides, the “serum PICP compared with baseline” value in assay [3] (20-μg group, Month 12) is reported as “decreased compared with baseline”; in assay [3] (40-μg group, Month 12), “slightly decreased compared with baseline”. Further, the “urinary NTX percent change from baseline, peak” value in assay [3] (20-μg group, Month 12) is reported as “approximately 57%”; in assay [3] (40-μg group, Month 6), “approximately 155%”. Besides, the “urinary NTX over baseline” value in assay [3] (40-μg group, Month 12) was “approximately 118%”. The “bone marker levels after discontinuation” value in assay [3] (closeout visit) was “only serum PICP levels had returned to baseline by the closeout visit”. Besides, the “incidence of new vertebral and non-vertebral fractures compared to placebo” value in assay [4] was “reduced the incidence of new vertebral fractures and non-vertebral fractures”.
